Results on two compounds are retold here after US4405713A, “Process for the preparation of optically active anthracycline glycosides A and B” (priority 1981, dated 1983).

Values after ≈ are worked out from the molar mass of the structure shown. Where two headings read alike, the source gives them in different places.

Data set [1] concerns Pseudomonas aeruginosa IFO 12689. Briefly: in vitro minimum inhibitory concentration (MIC), agar streak method. The format is cell-based. To be noted: IFO12689.
For data set [2], the system named is Micrococcus flavus ATCC 10240. The data set is described as above. Format: cell-based. To be noted: ATCC10240.
Data set [3] deals with Sarcina lutea IAM 1009. Described as above. The format is cell-based. To be noted: Micrococcus luteus, IAM1009.
In data set [4] the test system is Proteus vulgaris IAM 1025. The data set is described as above. Format: cell-based. The conditions noted are these: IAM1025.
Data set [5] is described as follows: toxicity (survival of treated mice). Format: in vivo. On the procedure:
All the mice treated with 100 mg/kg of 4-deoxy-aclacinomycin A, i.p., survived more than 7 days.

Data set [6] concerns P388 leukemia. Kind of data set: antitumour activity against P388 leukemia in mice, survival time. Format: in vivo, male CDF1 mice. The conditions noted are these: i.p., days 1, 5 and 9; for Mean survival: control 10.6 ± 0.6. On the procedure: 4-Deoxy-aclacinomycin A obtained in the present invention was tested against P388 leukemia in mice. When male CDF1 mice (5 week old) were inoculated with 10^6 of P388 leukemia cells intraperitoneally and the antibiotic was administered through the same route on days 1, 5 and 9, the survival time of the treated mice was prolonged as shown in Table 6.

For data set [7], the system named is Staphylococcus epidermidis IFO 12993. Briefly: in vitro minimum inhibitory concentration (MIC), agar streak method. The format is cell-based. The conditions noted are these: IFO12993.
Data set [8] deals with Klebsiella pheumonia IFO 3512. The data set is described as above. Format: cell-based. To be noted: IFO3512.
Data set [9] concerns Escherichia coli K-12 IAM 1264. The description is as above. The format is cell-based. The conditions noted are these: IAM1264.
In data set [10] the test system is Staphylococcus aureus 209P IAM 1011. The data set is described as above. The format is cell-based.
The test system of data set [11] is Bacillus subtilis IAM 1027. The data set is described as above. Format: cell-based. To be noted: IAM1027.

With `CC[C@@]1(O)C[C@H](O[C@H]2C[C@H](N(C)C)[C@H](O[C@H]3C[C@H](O)[C@H](O[C@H]4CCC(=O)[C@H](C)O4)[C@H](C)O3)[C@H](C)O2)c2c(cc3c(c2O)C(=O)c2ccccc2C3=O)[C@H]1C(=O)OC` [4-Deoxy-aclacinomycin A, 4-deoxy-aclacinomycin A], the MIC is greater than 100 µg/mL in data set [1] (Pseudomonas aeruginosa IFO 12689, read-out: MIC); 0.19 µg/mL (≈ 0.239 µM) in data set [2] (Micrococcus flavus ATCC 10240, read-out: MIC); 0.19 µg/mL (≈ 0.239 µM) in data set [3] (Sarcina lutea IAM 1009, read-out: MIC); greater than 100 µg/mL in [4] (Proteus vulgaris IAM 1025, read-out: MIC); 0.78 µg/mL (≈ 0.98 µM) in data set [7] (Staphylococcus epidermidis IFO 12993, read-out: MIC); greater than 100 µg/mL in data set [8] (Klebsiella pheumonia IFO 3512, read-out: MIC). Moreover, the MIC in [9] (Escherichia coli K-12 IAM 1264, read-out: MIC) is greater than 100 µg/mL; in data set [10] (Staphylococcus aureus 209P IAM 1011, read-out: MIC) it was 0.78 µg/mL (≈ 0.98 µM); in [11] (Bacillus subtilis IAM 1027, read-out: MIC) it was 0.39 µg/mL (≈ 0.49 µM). Moreover, the “survival of all the mice treated” value in data set [5] (100 mg/kg, i.p.) was “more than 7 days”. Further, the “toxicity as compared with that of aclacinomycin A” value in data set [5] (statement in words) is “very low as compared with that of aclacinomycin A”. Further, the “Increase in life span (%)” value in data set [6] (total dose 5.6 mg/Kg) is recorded as 8%; in data set [6] (total dose 11.3 mg/Kg), 18%; in data set [6] (total dose 22.5 mg/Kg) it was 23%; in data set [6] (total dose 45 mg/Kg), 27%; in data set [6] (total dose 90 mg/Kg), 57%. Moreover, the Mean survival amounted to 11.5 ± 0.5 days in [6] (total dose 5.6 mg/Kg); 12.5 ± 0.5 days in data set [6] (total dose 11.3 mg/Kg); 13.0 ± 0.0 days in data set [6] (total dose 22.5 mg/Kg); 13.5 ± 0.5 days in data set [6] (total dose 45 mg/Kg); 16.5 ± 0.5 days in [6] (total dose 90 mg/Kg).

With `CC[C@@]1(O)C[C@H](O[C@H]2C[C@H](N(C)C)[C@H](O[C@H]3C[C@@H]4OC5CC(=O)C(C)OC5O[C@@H]4[C@H](C)O3)[C@H](C)O2)c2c(cc3c(c2O)C(=O)c2ccccc2C3=O)[C@H]1C(=O)OC` (stereo partly drawn) [4-Deoxy-aclacinomycin B, 4-deoxy-aclacinomycin B], the minimal inhibitory concentration (MIC) is greater than 100 µg/mL in data set [1] (Pseudomonas aeruginosa); 0.39 µg/mL (≈ 0.491 µM) in data set [2] (Micrococcus flavus); 0.39 µg/mL (≈ 0.491 µM) in data set [3]; greater than 100 µg/mL in [4] (Proteus vulgaris); 3.13 µg/mL (≈ 3.94 µM) in data set [7] (Staphylococcus epidermidis); greater than 100 µg/mL in data set [8] (Klebsiella). The minimum inhibitory concentration (MIC) in [9] (Escherichia coli) is greater than 100 µg/mL; in [10] (Staphylococcus aureus) it was 3.13 µg/mL (≈ 3.94 µM); in [11] (Bacillus subtilis), 6.25 µg/mL (≈ 7.87 µM).

The term MIC denotes the lowest concentration that inhibits growth of the organism.
